Measurements as given in the supplement of paper PMC11451515.

What was measured:
Conditions in all cases: 48 h
NOMO1 [1] = assay: cell viability relative to DMSO control; higher = less cytotoxic
Procedure, shortened: (§1)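 Library compounds in DMSO were pin-dosed into 1536-well plates (5 μl) holding NOMO1 or SEM (500 cells/well) or P12-Ichikawa (1000 cells/well) leukemia cells, across an 11-point threefold series of 47 μM to 0.79 nM. Each cell line had been adapted for at least four passages in each medium. CellTiter-Glo One luminescence was read after 48 h at 37°C. Viability is the per-plate percentage relative to DMSO wells, with cell-free wells as background.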

P12-Ichikawa [2] = assay: as above
Procedure, shortened: as §1

SEM cells [3] = assay: as above
Procedure, shortened: as §1

NOMO1 [4] = assay: AUC of viability dose-response curve (% viability x log10 dose units); higher = less sensitive
Procedure, shortened: (§2)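 Leukemia cells adapted to each medium (500 or 1000 cells/well, 1536-well plates) were exposed to library compounds in DMSO for 48 h at 37°C at 11 threefold doses, 47 μM to 0.79 nM. Luminescence by CellTiter-Glo One was normalised per plate to DMSO and cell-free wells, then fitted with a four-parameter log-logistic curve on log10 dose. Curves above full viability were scaled and quality-control failures removed before area under the curve was integrated by trapezoidal rule.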

P12-Ichikawa [5] = assay: as above
Procedure, shortened: as §2

SEM cells [6] = assay: as above
Procedure, shortened: as §2

CN(C)CCOc1ccc(/C(=C(/CCCl)c2ccccc2)c2ccccc2)cc1
cell viability [%]
Conditions	NOMO1 [1]	P12-Ichikawa [2]	SEM cells [3]
HPLM + 10% dialyzed FBS, 0.000781 µM	105	102	54.7
HPLM + 10% dialyzed FBS, 0.00234 µM	116	110	92.8
HPLM + 10% dialyzed FBS, 0.00702 µM	98	107	85.2
HPLM + 10% dialyzed FBS, 0.0211 µM	94.7	107	94.2
HPLM + 10% dialyzed FBS, 0.0632 µM	104	106	108
HPLM + 10% dialyzed FBS, 0.19 µM	126	112	85.6
HPLM + 10% dialyzed FBS, 0.569 µM	100	111	88
HPLM + 10% dialyzed FBS, 1.71 µM	115	88.6	94.6
HPLM + 10% dialyzed FBS, 5.12 µM	95.5	67.2	58.5
HPLM + 10% dialyzed FBS, 15.4 µM	68.5	59.1	34
HPLM + 10% dialyzed FBS, 46.1 µM	42.2	34.9	16.5
RPMI 5 mM glucose + 10% FBS, 0.000781 µM	106	108	54.5
RPMI 5 mM glucose + 10% FBS, 0.00234 µM	104	109	100
RPMI 5 mM glucose + 10% FBS, 0.00702 µM	111	112	74.7
RPMI 5 mM glucose + 10% FBS, 0.0211 µM	109	108	96.7
RPMI 5 mM glucose + 10% FBS, 0.0632 µM	103	109	98.4
RPMI 5 mM glucose + 10% FBS, 0.19 µM	94.2	102	99.5
RPMI 5 mM glucose + 10% FBS, 0.569 µM	115	103	100
RPMI 5 mM glucose + 10% FBS, 1.71 µM	105	83.1	74.8
RPMI 5 mM glucose + 10% FBS, 5.12 µM	99.1	57.9	39.5
RPMI 5 mM glucose + 10% FBS, 15.4 µM	57.3	50.5	22.1
RPMI 5 mM glucose + 10% FBS, 46.1 µM	39.6	32.2	11.9
RPMI 5 mM glucose + 10% dialyzed FBS, 0.000781 µM	93.4	102	45.9
RPMI 5 mM glucose + 10% dialyzed FBS, 0.00234 µM	110	107	96.8
RPMI 5 mM glucose + 10% dialyzed FBS, 0.00702 µM	113	112	83.6
RPMI 5 mM glucose + 10% dialyzed FBS, 0.0211 µM	116	111	102
RPMI 5 mM glucose + 10% dialyzed FBS, 0.0632 µM	108	109	117
RPMI 5 mM glucose + 10% dialyzed FBS, 0.19 µM	125	102	97.5
RPMI 5 mM glucose + 10% dialyzed FBS, 0.569 µM	108	112	85.8
RPMI 5 mM glucose + 10% dialyzed FBS, 1.71 µM	120	80.3	85.2
RPMI 5 mM glucose + 10% dialyzed FBS, 5.12 µM	107	58.1	57.6
RPMI 5 mM glucose + 10% dialyzed FBS, 15.4 µM	76.9	44.1	36.1
RPMI 5 mM glucose + 10% dialyzed FBS, 46.1 µM	50.6	42.7	22.6

AUC of viability dose-response curve
Conditions	NOMO1 [4]	P12-Ichikawa [5]	SEM cells [6]
HPLM + 10% dialyzed FBS	441	410	362
RPMI 5 mM glucose + 10% FBS	437	393	344
RPMI 5 mM glucose + 10% dialyzed FBS	448	399	369
